A word on the Ki: it is a dissociation constant, usually derived from enzyme kinetics or from competition with a known ligand. The low end stands for a stronger hold on the target, the high end for a looser hold on the target.

human mu-opioid peptide (hMOP) receptor, sequence (P35372 whole entry): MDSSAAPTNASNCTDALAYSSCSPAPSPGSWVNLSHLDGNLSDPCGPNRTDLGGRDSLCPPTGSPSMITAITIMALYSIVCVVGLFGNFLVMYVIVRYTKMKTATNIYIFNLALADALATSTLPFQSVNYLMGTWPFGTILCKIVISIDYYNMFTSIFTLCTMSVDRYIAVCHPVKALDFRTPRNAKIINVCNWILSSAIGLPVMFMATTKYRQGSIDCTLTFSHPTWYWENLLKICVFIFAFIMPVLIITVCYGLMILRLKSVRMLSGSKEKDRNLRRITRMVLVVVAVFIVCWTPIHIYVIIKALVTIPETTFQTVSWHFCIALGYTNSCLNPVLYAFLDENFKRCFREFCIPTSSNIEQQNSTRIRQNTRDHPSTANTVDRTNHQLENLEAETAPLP

The first test addresses human mu-opioid peptide (hMOP) receptor (Homo sapiens (Human), UniProt P35372). The test is described as follows: Human mu-opioid peptide (hMOP) receptor binding assay (SPA, [3H]naloxone displacement).
The compound `CN(C)[C@]1(c2ccccc2)CC[C@]2(CC1)CN(c1cnc(C#N)nc1)C(=O)N2CCO` [SC_3025, cis-5-[8-Dimethylamino-1-(2-hydroxy-ethyl)-2-oxo-8-phenyl-1,3-diazaspiro[4.5]decan-3-yl]-pyrimidine-2-carbonitrile] yielded a Ki of 1530 nM. Consider `CNC1(c2ccccc2)CCC2(CC1)CN(c1ccccc1C(N)=O)C(=O)N2` (stereo not drawn) [SC_3119, cis-2-(8-Methylamino-2-oxo-8-phenyl-1,3-diazaspiro[4.5]decan-3-yl)-benzamide], for which the “hMOP % inhibition at 1 μM” value amounted to 10%. Same read-out and setting: in the case of `CN(C)C1(c2nc3ccccc3n2C)CCC2(CC1)CN(c1cnc(C(F)(F)F)nc1)C(=O)N2` (stereo not drawn) [SC_3219, cis-8-Dimethylamino-8-(1-methyl-1H-benzoimidazol-2-yl)-3-[2-(trifluoromethyl)-pyrimidin-5-yl]-1,3-diazaspiro[4.5]decan-2-one] it was 1%; in that of `CN(CC1CCOC1)[C@]1(c2ccccc2)CC[C@]2(CC1)CN(c1cnc(N3CCOCC3)nc1)C(=O)N2` (stereo partly drawn) [SC_3304, cis-8-[Methyl-(tetrahydro-furan-3-yl-methyl)-amino]-3-(2-morpholin-4-yl-pyrimidin-5-yl)-8-phenyl-1,3-diazaspiro[4.5]decan-2-one], 4%; in that of `CN(CC1CCOC1)[C@]1(c2ccccc2)CC[C@]2(CC1)CN(c1cnc(N3CCOCC3)nc1)C(=O)N2` (stereo partly drawn) [SC_3305, cis-8-[Methyl-(tetrahydro-furan-3-yl-methyl)-amino]-3-(2-morpholin-4-yl-pyrimidin-5-yl)-8-phenyl-1,3-diazaspiro[4.5]decan-2-one], 0%.

The next test has as its target human nociceptin/orphanin FQ peptide (hNOP) receptor (Homo sapiens (Human), UniProt P41146).
Assay: not given
It is filed as binding.
With `CN1CCN(c2ncc(N3CC4(CCC(c5ccccc5)(N(C)CC5CCOC5)CC4)NC3=O)cn2)CC1` (single isomer, unassigned; enantiomer 1) [SC_3324, cis-3-[2-(4-Methyl-piperazin-1-yl)-pyrimidin-5-yl]-8-[methyl-(tetrahydro-furan-3-yl-methyl)-amino]-8-phenyl-1,3-diazaspiro[4.5]decan-2-one (enantiomer 1)], the “hNOP % inhibition at 1 μM” value is recorded as 12%. Turning to `CN1CCN(c2ncc(N3CC4(CCC(c5ccccc5)(N(C)CC5CCOC5)CC4)NC3=O)cn2)CC1` (single isomer, unassigned; enantiomer 2) [SC_3325, cis-3-[2-(4-Methyl-piperazin-1-yl)-pyrimidin-5-yl]-8-[methyl-(tetrahydro-furan-3-yl-methyl)-amino]-8-phenyl-1,3-diazaspiro[4.5]decan-2-one (enantiomer 2)], the “hNOP % inhibition at 10 μM” value amounted to 53%@10 μM.

`CNC1(c2ccccc2)CCC2(CC1)CN(c1ccccc1C(N)=O)C(=O)N2` (stereo not drawn) [SC_3119, cis-2-(8-Methylamino-2-oxo-8-phenyl-1,3-diazaspiro[4.5]decan-3-yl)-benzamide]: the “hNOP % inhibition at 1 μM” value stood at 22%. Regarding `CCNC1(c2ccccc2)CCC2(CC1)CN(c1ccccc1C(N)=O)C(=O)N2` (stereo not drawn) [SC_3125, trans-2-(8-Ethylamino-2-oxo-8-phenyl-1,3-diazaspiro[4.5]decan-3-yl)-benzamide], the “hNOP % inhibition at 10 μM” value came to 3%@10 μM. On to `CCNC1(c2ccccc2)CCC2(CC1)CN(c1ccccc1C(N)=O)C(=O)N2` (stereo not drawn) [SC_3126, cis--2-(8-Ethylamino-2-oxo-8-phenyl-1,3-diazaspiro[4.5]decan-3-yl)-benzamide], for which the “hNOP % inhibition at 1 μM” value came to 0%.

Regarding `CCN[C@]1(c2ccccc2)CC[C@@]2(CC1)CN(c1ccccc1C#N)C(=O)N2` [SC_3127, cis-2-(8-Ethylamino-2-oxo-8-phenyl-1,3-diazaspiro[4.5]decan-3-yl)-benzonitrile], the “hNOP % inhibition at 1 μM” value worked out at 0%.

With `CCN[C@]1(c2ccccc2)CC[C@]2(CC1)CN(c1ccccc1C#N)C(=O)N2` [SC_3128, cis-2-(8-Ethylamino-2-oxo-8-phenyl-1,3-diazaspiro[4.5]decan-3-yl)-benzonitrile], the “hNOP % inhibition at 1 μM” value is 0%. Take `CCNC1(c2ccccc2)CCC2(CC1)CN(c1ccc(C#N)cc1OC)C(=O)N2` (stereo not drawn) [SC_3134, trans-4-(8-Ethylamino-2-oxo-8-phenyl-1,3-diazaspiro[4.5]decan-3-yl)-3-methoxy-benzonitrile]: the “hNOP % inhibition at 10 μM” value was found to be 3%@10 μM. For the compound `CCNC1(c2ccccc2)CCC2(CC1)CN(c1ccc(C#N)cc1OC)C(=O)N2` (stereo not drawn) [SC_3135, cis-4-(8-Ethylamino-2-oxo-8-phenyl-1,3-diazaspiro[4.5]decan-3-yl)-3-methoxy-benzonitrile], the “hNOP % inhibition at 1 μM” value is on record as 1%. Same read-out and setting: in the case of `CCN[C@]1(c2ccccc2)CC[C@]2(CC1)CN(c1cnc(C#N)nc1OC)C(=O)N2` [SC_3143, cis-5-(8-Ethylamino-2-oxo-8-phenyl-1,3-diazaspiro[4.5]decan-3-yl)-4-methoxy-pyrimidine-2-carbonitrile] it was 0%. Regarding `CCN[C@]1(c2ccccc2)CC[C@@]2(CC1)CN(c1cnc(C#N)nc1OC)C(=O)N2` [SC_3144, trans-5-(8-Ethylamino-2-oxo-8-phenyl-1,3-diazaspiro[4.5]decan-3-yl)-4-methoxy-pyrimidine-2-carbonitrile], the “hNOP % inhibition at 1 μM” value stood at 0%. Same read-out and setting: with `CN(C)[C@]1(Cc2ccccc2)CC[C@@]2(CC1)CN(c1cnc(N3CCOCC3)nc1)C(=O)N2` [SC_3160, trans-8-Benzyl-8-dimethylamino-3-(2-morpholin-4-yl-pyrimidin-5-yl)-1,3-diazaspiro[4.5]decan-2-one] the figure was 4%; with `CN(C)C1(Cc2ccccc2)CCC2(CC1)CN(c1cnc(N3CCOCC3)nc1)C(=O)N2` (stereo not drawn) [SC_3161, cis-8-Benzyl-8-dimethylamino-3-(2-morpholin-4-yl-pyrimidin-5-yl)-1,3-diazaspiro[4.5]decan-2-one], 2%; with `CN(C)C1(Cc2ccccc2)CCC2(CC1)CN(c1cnc(C(F)(F)F)nc1)C(=O)N2` (stereo not drawn) [SC_3165, cis-8-Benzyl-8-dimethylamino-3-[2-(trifluoromethyl)-pyrimidin-5-yl]-1,3-diazaspiro[4.5]decan-2-one], 4%. On to `CN(C)[C@]1(Cc2ccccc2)CC[C@@]2(CC1)CN(c1cnc(C(F)(F)F)nc1)C(=O)N2` [SC_3166, trans-8-Benzyl-8-dimethylamino-3-[2-(trifluoromethyl)-pyrimidin-5-yl]-1,3-diazaspiro[4.5]decan-2-one], for which the “hNOP % inhibition at 1 μM” value is on record as 3%.

With `Cc1cc(C(F)(F)F)ncc1N1C[C@]2(CC[C@@](Cc3ccccc3)(N(C)C)CC2)NC1=O` [SC_3174, trans-8-Benzyl-8-dimethylamino-3-[4-methyl-6-(trifluoromethyl)-pyridin-3-yl]-1,3-diazaspiro[4.5]decan-2-one], the “hNOP % inhibition at 1 μM” value worked out at 3%. On the same count and under the same terms, with `Cc1cc(C(F)(F)F)ncc1N1CC2(CCC(Cc3ccccc3)(N(C)C)CC2)NC1=O` (stereo not drawn) [SC_3215, cis-8-Benzyl-8-dimethylamino-3-[4-methyl-6-(trifluoromethyl)-pyridin-3-yl]-1,3-diazaspiro[4.5]decan-2-one] the figure was 0%.

Regarding `CN(C)C1(c2nc3ccccc3n2C)CCC2(CC1)CN(c1cnc(C(F)(F)F)nc1)C(=O)N2` (stereo not drawn) [SC_3219, cis-8-Dimethylamino-8-(1-methyl-1H-benzoimidazol-2-yl)-3-[2-(trifluoromethyl)-pyrimidin-5-yl]-1,3-diazaspiro[4.5]decan-2-one], the “hNOP % inhibition at 1 μM” value is on record as 0%.

In the case of `CN(CC1CCOC1)[C@]1(c2ccccc2)CC[C@]2(CC1)CN(c1cnc(N3CCOCC3)nc1)C(=O)N2` (stereo partly drawn) [SC_3304, cis-8-[Methyl-(tetrahydro-furan-3-yl-methyl)-amino]-3-(2-morpholin-4-yl-pyrimidin-5-yl)-8-phenyl-1,3-diazaspiro[4.5]decan-2-one], the “hNOP % inhibition at 1 μM” value stood at 9%. On the same count and under the same terms, in the case of `CN(CC1CCOC1)[C@]1(c2ccccc2)CC[C@]2(CC1)CN(c1cnc(N3CCOCC3)nc1)C(=O)N2` (stereo partly drawn) [SC_3305, cis-8-[Methyl-(tetrahydro-furan-3-yl-methyl)-amino]-3-(2-morpholin-4-yl-pyrimidin-5-yl)-8-phenyl-1,3-diazaspiro[4.5]decan-2-one] it was 10%.

The record behind these values is patent US10807988B2, “3-((hetero-)aryl)-8-amino-2-oxo-1,3-diaza-spiro-[4.5]-decane derivatives” (Grünenthal GmbH, priority 2016, dated 2020).
